Results: patent publication US4600715A, “Benzodiazepine antagonistic β-carboline derivatives and compositions thereof” (Shering Aktiengesellschaft, priority 1983, dated 1986)
≈ marks a conversion by molar mass, not a printed value.

Molecular target: benzodiazepine receptors
Assay: not given
Settings: comparison compound marked *Nature 294: 472 (1981); ^3 H flunitrazepam 1.0 nM, 0° C.; cited from earlier work

Row | Structure (SMILES) | IC50 (in vitro), displacement activity [ng/mL]
1 | COC(=O)c1cc2c(cn1)[nH]c1ccccc12 [CO2 Me, H, H] | 1.9 (≈ 8.4 nM)

Molecular target: benzodiazepine receptors
Assay: in vitro displacement of specific ^3 H flunitrazepam binding, cerebral membrane suspension
Settings: ^3 H flunitrazepam 1.0 nM, 0° C.; rat cerebrum, pH 7.1; concentration effecting 50% displacement of specific binding

Row | Structure (SMILES) | IC50 (in vitro), displacement activity [ng/mL]
2 | CCOC(=O)c1ncc2[nH]c3ccc(C(=O)N(C)C)cc3c2c1COC [CO2 Et, CH2 OCH3, CON(CH3)2, 6-N,N-dimethylcarbamoyl-4-methoxymethyl-β-carboline-3-carboxylic acid ethyl ester] | 1.3 (≈ 3.66 nM)
3 | C=CCN(CC=C)C(=O)c1ccc2[nH]c3cnc(C(=O)OCC)c(C)c3c2c1 [CO2 Et, CH3, CON(Allyl)2, 6-N,N-diallylcarbamoyl-4-methyl-β-carboline-3-carboxylic acid ethyl ester] | 0.4 (≈ 1.06 nM)
4 | CCOC(=O)c1cc2c(cn1)[nH]c1ccc(C(=O)N3CCCCC3)cc12 [CO2 Et, H, drawing 10, 6-piperidinocarbonyl-β-carboline-3-carboxylic acid ethyl ester] | 0.6 (≈ 1.71 nM)
5 | CCCOC(=O)c1ccc2[nH]c3cnc(C(=O)OCC)c(C)c3c2c1 [CO2 Et, Me, COOC3 H7, 6-propoxycarbonyl-4-methyl-β-carboline-3-carboxylic acid ethyl ester] | 0.5 (≈ 1.47 nM)
6 | CCc1noc(-c2cc3c(cn2)[nH]c2ccc(C(=O)N4CCCCC4)cc23)n1 [drawing 11, H, drawing 12, 3-(5'-[3'-ethyl-1',2',4'-oxadiazol]yl)-β-carboline-6-carboxylic acid piperidide] | 0.6 (≈ 1.6 nM)
